Measured values from PMC7709710 (Investigational new drugs, 2015).

What was measured:
[1] = tested on: patients with advanced solid tumors; conditions: human, in vivo, 4 weeks
[2] = Plasma and urine pharmacokinetics in patients; type: in vivo, human
advanced solid tumors = assay: Tumor response by RECIST 1.1; type: in vivo, human
Hsp70 mRNA = Hsp70 mRNA by RT-PCR in paired tumor biopsies; type: in vivo, human; conditions: one patient, dose level 3 (80 mg/m^2/dose), pre-dose vs day 17 of cycle 1
Hsp27 mRNA = Hsp27 mRNA by RT-PCR in paired tumor biopsies; type: in vivo, human; conditions: one patient, dose level 3 (80 mg/m^2/dose), pre-dose vs day 17 of cycle 1
Hsp70 protein = Hsp70 protein in PBMCs by Western blot; type: in vivo, human
Hsp90 client proteins = assay: Reverse phase protein array; type: in vivo, human
Hsp90 = conditions: cited from earlier work
human xenograft models = conditions: several human xenograft models; cited from earlier work
patients = conditions: cited from earlier work
[3] = pre- to post-treatment, RP2D, subgroup 1 (patients 21, 22, 31)
[4] = pre- to post-treatment, RP2D, subgroup 2 (patients 28, 24, 30, 27, 29)
[5] = subgroup 1 only (patients 21, 22, 31)

CC(C)c1cc(C(=O)N2Cc3ccc(CN4CCN(C)CC4)cc3C2)c(O)cc1O [onalespib]
recommended phase 2 dose (RP2D) [1]: 160 mg/m^2/dose
urinary drug excretion ([2]; 24 h after drug administration): < 10%
plasma accumulation of drug with repeated dosing ([2]; day 1 vs day 15 of cycle 1): no significant plasma accumulation
plasma exposure to drug (AUC) versus dose ([2]; doses 20–210 mg/m^2): proportional to dose
half-life ([2]; human, plasma, intravenous): ~8 h
tumor responses (advanced solid tumors; 31 patients treated): No responses were observed
longest time on study (one patient with hepatocellular carcinoma) (advanced solid tumors; in vivo): 6 cycles
induction of Hsp70 mRNA following treatment (Hsp70 mRNA): > 1.5 fold
induction of Hsp27 mRNA following treatment (Hsp27 mRNA): > 2 fold
Hsp70 protein expression in PBMCs at dose level 1 (Hsp70 protein; Patient #1, dose level 1 (20 mg/m^2)): no increase in Hsp70 expression
Hsp70 protein expression in PBMC samples (Hsp70 protein; patients at dose levels 2 through 5 (RP2D)): increased Hsp70 protein expression
within-patient expression changes of 210 client proteins (Hsp90 client proteins; 9 patients, RP2D, baseline vs cycle 1 day 16 or 17): no proteins with statistically significant changes
CHK2, mean log2-normalized expression change: group 1 (Hsp90 client proteins; [3]): 1.0062
MAP2K2, mean log2-normalized expression change: group 1 (Hsp90 client proteins; [3]): −0.2937
PRAS, mean log2-normalized expression change: group 1 (Hsp90 client proteins; [3]): 0.3038
RAB11A/B, mean log2-normalized expression change: group 1 (Hsp90 client proteins; [3]): −0.5853
Raf-1, mean log2-normalized expression change: group 1 (Hsp90 client proteins; [3]): −0.2670
STAT3, mean log2-normalized expression change: group 1 (Hsp90 client proteins; [3]): −0.6103
STAT5A, mean log2-normalized expression change: group 1 (Hsp90 client proteins; [3]): 0.5016
c-Src, mean log2-normalized expression change: group 1 (Hsp90 client proteins; [3]): −0.5997
eEF-2 kinase, mean log2-normalized expression change: group 1 (Hsp90 client proteins; [3]): 0.9679
serpin E1, mean log2-normalized expression change: group 1 (Hsp90 client proteins; [3]): −3.0031
CHK2, mean log2-normalized expression change: group 2 (Hsp90 client proteins; [4]): 0.1233
MAP2K2, mean log2-normalized expression change: group 2 (Hsp90 client proteins; [4]): 0.1770
PRAS, mean log2-normalized expression change: group 2 (Hsp90 client proteins; [4]): −0.1004
RAB11A/B, mean log2-normalized expression change: group 2 (Hsp90 client proteins; [4]): 0.0826
Raf-1, mean log2-normalized expression change: group 2 (Hsp90 client proteins; [4]): −0.0855
STAT3, mean log2-normalized expression change: group 2 (Hsp90 client proteins; [4]): 0.0176
STAT5A, mean log2-normalized expression change: group 2 (Hsp90 client proteins; [4]): −0.0725
c-Src, mean log2-normalized expression change: group 2 (Hsp90 client proteins; [4]): −0.0664
eEF-2 kinase, mean log2-normalized expression change: group 2 (Hsp90 client proteins; [4]): −0.0370
serpin E1, mean log2-normalized expression change: group 2 (Hsp90 client proteins; [4]): 0.2094
decrease in CHK1 phosphorylation after treatment (Hsp90 client proteins; [5]): > 2 fold
decrease in CHK2 phosphorylation after treatment (Hsp90 client proteins; [5]): > 2 fold
Kd (Hsp90): 0.71 nM
tumor growth inhibition, QDx2/week versus other schedules (human xenograft models): consistently greater tumor growth inhibition
patients with visual disturbances (patients; 120 mg/m^2/dose twice weekly): 10 of 13
maximum-tolerated-dose (patients; twice weekly dosing, days 1, 4, 8, 11, 15, 18 in 28 day cycles): 120 mg/m^2/dose
